According to US20230167127A1, “COMPOUNDS AND THEIR USE IN THE TREATMENT OF BACTERIAL INFECTION” (Hoffmann-La Roche Inc., priority 2020, published 2023):
Like-named read-outs stand apart in the source and are kept apart here.

System: Escherichia coli ATCC 25922
Test: 50% growth inhibitory concentration (IC50) determination, Iso-Sensitest broth dilution
Type: cell-based
Details: strain Escherichia coli ATCC 25922, 10-point broth dilution, optical density at 600 nm over 16 h, read-out: Escherichia coli growth inhibition IC50
Procedure: 50% Growth Inhibitory Concentration (IC50) Determination
The in vitro antimicrobial activity of the compounds was determined according to the following procedure:
The assay used a 10-point Iso-Sensitest broth dilution method to measure quantitatively the in vitro
ATCC 25922, Acinetobacter baumannii ATCC 17961, Klebsiella pneumoniae ATCC 43816 and Staphylococcus aureus ATCC 29213.
Stock compounds in DMSO were serially twofold diluted (e.g. range from 50 to 0.097 μM final concentration) in 384 wells microtiter plates and inoculated with 50 μL of the bacterial suspension in Iso-
ell of 50 μL/well. Microtiter plates were incubated at 35±2° C.
Bacterial cell growth was determined with the measurement of optical density at λ=600 nm each 20 minutes over a time course of 16 h.
Growth inhibition was calculated during the logarithmic growth of the bacterial cells with
Table 1 provides the 50% growth inhibitory concentrations (IC50) in micromoles per liter of the compounds of present invention obtained against the strain Escherichia coli ATCC 25922.

[1] = Escherichia coli, ATCC25922, 16 h

Row | Compound | IC50 | IC50 [1]
1 | Cc1ncc(F)c2c1CC(CN1CCC3(CN(c4ccc5c(n4)NC(=O)CO5)C(=O)O3)C(CN)C1)C2 (racemic) [Example 250, 6-[rac-5,6-trans-6-(Aminomethyl)-8-[(4-fluoro-1-methyl-6,7-dihydro-5H-cyclopenta[c]pyridin-6-yl)methyl]-2-oxo-1-oxa-3,8-diazaspiro[4.5]decan-3-yl]-4H-pyrido[3,2-b][1,4]oxazin-3-one] | 289 nM | –
2 | Cc1ncc(F)c2c1CC(CN1CCC3(CN(c4ccc5c(n4)NC(=O)CO5)C(=O)O3)C(CN)C1)C2 (racemic) [Example 251, 6-[rac-5,6-cis-6-(Aminomethyl)-8-[(4-fluoro-1-methyl-6,7-dihydro-5H-cyclopenta[c]pyridin-6-yl)methyl]-2-oxo-1-oxa-3,8-diazaspiro[4.5]decan-3-yl]-4H-pyrido[3,2-b][1,4]oxazin-3-one] | 679 nM | –
3 | N#Cc1cccc2c1CC(CN1CCC3(CN(c4ccc5c(n4)NC(=O)CO5)C(=O)O3)C(CN)C1)C2 (racemic) [Example 252, 2-[[rac-5,6-trans-6-(Aminomethyl)-2-oxo-3-(3-oxo-4H-pyrido[3,2-b][1,4]oxazin-6-yl)-1-oxa-3,8-diazaspiro[4.5]decan-8-yl]methyl]-2,3-dihydro-1H-indene-4-carbonitrile; formic acid] | 156 nM | –
4 | N[C@@H]1c2cccc(Cl)c2C[C@H]1CN1CCC2(CC1)CN(c1cnc3c(n1)NC(=O)CO3)C(=O)O2 (racemic) [Example 259, 6-[2-Oxo-8-[[rac-1,2-trans-1-amino-4-chloro-2,3-dihydro-1H-inden-2-yl]methyl]-1-oxa-3,8-diazaspiro[4.5]decan-3-yl]-4H-pyrazino[2,3-b][1,4]oxazin-3-one; formic acid] | – | < 97.7 nM
5 | Cc1ncc(Cl)c2c1CC(CNCCC1CN(c3cnc4c(n3)NC(=O)CO4)C(=O)O1)C2N (racemic) [Example 263, 6-[2-oxo-5-[2-[[rac-5,6-trans-5-amino-4-chloro-1-methyl-6,7-dihydro-5H-cyclopenta[c]pyridin-6-yl]methylamino]ethyl]-1,3-oxazolidin-3-yl]-4H-pyrazino[2,3-b][1,4]oxazin-3-one] | – | 127 nM
6 | NC1c2cccc(Cl)c2CC1CCNCC1CN(c2cnc3c(n2)NC(=O)CO3)C(=O)O1 (racemic) [Example 266, 6-[2-Oxo-5-[[2-[rac-1,2-trans-1-amino-4-chloro-2,3-dihydro-1H-inden-2-yl]ethylamino]methyl]-1,3-oxazolidin-3-yl]-4H-pyrazino[2,3-b][1,4]oxazin-3-one] | – | 206 nM
7 | NC1c2cc(OCC3(N)CC3)cc(Cl)c2CC1CNCCC1CN(c2ccc3c(n2)NC(=O)CO3)C(=O)O1 (racemic) [Example 273, 6-[2-Oxo-5-[2-[[rac-1,2-trans-1-amino-6-[(1-aminocyclopropyl)methoxy]-4-chloro-2,3-dihydro-1H-inden-2-yl]methylamino]ethyl]-1,3-oxazolidin-3-yl]-4H-pyrido[3,2-b][1,4]oxazin-3-one; formic acid] | – | 148 nM
8 | NC1c2cccc(Cl)c2CC1CNCCC1CN(c2ncc3c(n2)NC(=O)CO3)C(=O)O1 (racemic) [Example 290, 2-[5-[2-[(rac-1,2-trans-1-amino-4-chloro-2,3-dihydro-1H-inden-2-yl)methylamino]ethyl]-2-oxo-1,3-oxazolidin-3-yl]-8H-pyrimido[5,4-b][1,4]oxazin-7-one] | – | 261 nM
9 | NC1c2cccc(Cl)c2CC1CNCCc1cn(-c2cnc3c(n2)NC(=O)CO3)c(=O)o1 (racemic) [Example 359, 6-[5-[2-[(rac-1,2-trans-1-amino-4-chloro-2,3-dihydro-1H-inden-2-yl)methylamino]ethyl]-2-oxo-1,3-oxazol-3-yl]-4H-pyrazino[2,3-b][1,4]oxazin-3-one; formic acid] | – | < 97.7 nM
10 | CNC(=O)COc1cc(Cl)c2c(c1)C(N)C(CNCCC1CN(c3cnc4c(n3)NC(=O)CO4)C(=O)O1)C2 (racemic) [Example 399, 2-[[rac-2,3-trans-3-Amino-7-chloro-2-[[2-[2-oxo-3-(3-oxo-4H-pyrazino[2,3-b][1,4]oxazin-6-yl)-1,3-oxazolidin-5-yl]ethylamino]methyl]-2,3-dihydro-1H-inden-5-yl]oxy]-N-methylacetamide; formic acid] | – | 1120 nM
11 | CNC(=O)COc1cc(Cl)c2c(c1)C(N)C(CNCCC1CN(c3ccc4c(n3)NC(=O)CO4)C(=O)O1)C2 (racemic) [Example 400, N-methyl-2-[[rac-2,3-trans-3-amino-7-chloro-2-[[2-[2-oxo-3-(3-oxo-4H-pyrido[3,2-b][1,4]oxazin-6-yl)-1,3-oxazolidin-5-yl]ethylamino]methyl]-2,3-dihydro-1H-inden-5-yl]oxy]acetamide; formic acid] | – | 365 nM
12 | Cc1ncc(C#N)c2c1CC(NCCCc1cn(-c3cnc4c(n3)NC(=O)CO4)c(=O)o1)C2 (single isomer, unassigned; enantiomer a) [Example 321, 1-Methyl-6-[3-[2-oxo-3-(3-oxo-4H-pyrazino[2,3-b][1,4]oxazin-6-yl)-1,3-oxazol-5-yl]propylamino]-6,7-dihydro-5H-cyclopenta[c]pyridine-4-carbonitrile, Enantiomer A] | – | < 97.7 nM
13 | Cc1nccc2c1CC(NCCCc1cn(-c3cnc4c(n3)NC(=O)CO4)c(=O)o1)C2 (single isomer, unassigned; enantiomer a) [Example 369, 6-[5-[3-[(1-Methyl-6,7-dihydro-5H-cyclopenta[c]pyridin-6-yl)amino]propyl]-2-oxo-1,3-oxazol-3-yl]-4H-pyrazino[2,3-b][1,4]oxazin-3-one; formic acid, Enantiomer A] | – | 172 nM
14 | CC(C)(N)COc1cc(F)c2c(c1)CC(CN1CCC3(CC1)CN(c1cnc4c(n1)NC(=O)CO4)C(=O)O3)C2 (single isomer, unassigned; enantiomer a) [Example 377, 6-[8-[[6-(2-Amino-2-methylpropoxy)-4-fluoro-2,3-dihydro-1H-inden-2-yl]methyl]-2-oxo-1-oxa-3,8-diazaspiro[4.5]decan-3-yl]-4H-pyrazino[2,3-b][1,4]oxazin-3-one; formic acid, Enantiomer A] | – | < 97.7 nM

Results, then the compound that gave them:

Row | IC50 | IC50 [1] | Compound
15 | – | < 97.7 nM | Cc1ncc(Cl)c2c1CC(CNCCC1CN(c3ccc4c(n3)NC(=O)CO4)C(=O)O1)C2N (racemic) [Example 262, 6-[5-[2-[(rac-5,6-trans-5-Amino-4-chloro-1-methyl-6,7-dihydro-5H-cyclopenta[c]pyridin-6-yl)methylamino]ethyl]-2-oxo-1,3-oxazolidin-3-yl]-4H-pyrido[3,2-b][1,4]oxazin-3-one; formic acid]
16 | – | < 97.7 nM | Cc1ncc(Cl)c2c1CC(CNCCC1CN(c3ccc4c(n3)NC(=O)CS4)C(=O)O1)C2N (racemic) [Example 264, 3-(3-Oxo-4H-pyrido[3,2-b][1,4]thiazin-6-yl)-5-[2-[[rac-5,6-trans-5-amino-4-chloro-1-methyl-6,7-dihydro-5H-cyclopenta[c]pyridin-6-yl]methylamino]ethyl]-1,3-oxazolidin-2-one]
17 | – | < 97.7 nM | N[C@@H]1c2cc(OCC3(N)CC3)cc(Cl)c2C[C@H]1CN1CCC2(CC1)CN(c1ccc3c(n1)NC(=O)CO3)C(=O)O2 (racemic) [Example 274, 6-[2-Oxo-8-[[rac-1,2-trans-1-amino-6-[(1-aminocyclopropyl)methoxy]-4-chloro-2,3-dihydro-1H-inden-2-yl]methyl]-1-oxa-3,8-diazaspiro[4.5]decan-3-yl]-4H-pyrido[3,2-b][1,4]oxazin-3-one; formic acid]
18 | – | 374 nM | NC1c2cc(OCC3(N)CC3)cc(Cl)c2CC1CNCCC1CN(c2cnc3c(n2)NC(=O)CO3)C(=O)O1 (racemic) [Example 282, 6-[2-Oxo-5-[2-[[rac-1,2-trans-1-amino-6-[(1-aminocyclopropyl)methoxy]-4-chloro-2,3-dihydro-1H-inden-2-yl]methylamino]ethyl]-1,3-oxazolidin-3-yl]-4H-pyrazino[2,3-b][1,4]oxazin-3-one; formic acid]
19 | – | 1080 nM | NC1c2cccc(Cl)c2CC1CNCCc1nn(-c2cnc3c(n2)NC(=O)CO3)c(=O)o1 (racemic) [Example 337, 6-[2-oxo-5-[2-[[rac-1,2-trans-1-amino-4-chloro-2,3-dihydro-1H-inden-2-yl]methylamino]ethyl]-1,3,4-oxadiazol-3-yl]-4H-pyrazino[2,3-b][1,4]oxazin-3-one; formic acid]
20 | – | 351 nM | CC1(CCNCC2Cc3c(Cl)cccc3C2N)CN(c2cnc3c(n2)NC(=O)CO3)C(=O)O1 (racemic) [Example 375, 6-[5-methyl-2-oxo-5-[2-[(rac-1,2-trans-1-amino-4-chloro-2,3-dihydro-1H-inden-2-yl)methylamino]ethyl]-1,3-oxazolidin-3-yl]-4H-pyrazino[2,3-b][1,4]oxazin-3-one]
21 | – | < 97.7 nM | Cc1ncc(F)c2c1CC(NCCCc1cn(-c3cnc4c(n3)NC(=O)CO4)c(=O)o1)C2 (single isomer, unassigned; enantiomer a) [Example 367, 6-[5-[3-[(4-Fluoro-1-methyl-6,7-dihydro-5H-cyclopenta[c]pyridin-6-yl)amino]propyl]-2-oxo-1,3-oxazol-3-yl]-4H-pyrazino[2,3-b][1,4]oxazin-3-one, Enantiomer A]
22 | < 97.7 nM | – | Cc1ncc(C#N)c2c1CC(NCCCc1cn(-c3cnc4c(n3)NC(=O)CO4)c(=O)o1)C2 (single isomer, unassigned; enantiomer b) [Example 322, 1-Methyl-6-[3-[2-oxo-3-(3-oxo-4H-pyrazino[2,3-b][1,4]oxazin-6-yl)-1,3-oxazol-5-yl]propylamino]-6,7-dihydro-5H-cyclopenta[c]pyridine-4-carbonitrile, Enantiomer B]
